Data from article PMC9820316, “Novel Arylpiperazine Derivatives of Salicylamide with α1-Adrenolytic Properties Showed Antiarrhythmic and Hypotensive Properties in Rats” (International Journal of Molecular Sciences, 2022).
Marks after values point to notes of the source that are not given here.

Key:
α1-adrenergic receptors = assay: α1-adrenoceptor radioligand binding assay ([3H]-prazosin, rat cortex); conditions: rat cortex tissue, mean ± SEM
Experimental: The α1- and α2-adrenoceptor radioligand binding assays were performed on the rat cerebral cortex using previously described methods. […] The brains were homogenized using the ULTRA-TURRAX homogenizer in 10 mL of an ice-cold 50 mM Tris-HCl buffer (pH 7.6). The homogenates were centrifuged at 20,000× g for 20 min (0–4 °C). Subsequently, the cell pellet was resuspended in the Tris–HCl buffer and centrifuged again. Radioligand binding assays were carried out in plates (MultiScreen/Millipore). The final incubation mixture, with a volume of 300 μL, consisted of 240 μL of the tissue suspension, 30 μL of the radioligand solution, and 30 μL of the buffer containing 7–8 concentrations of the studied compounds. In order to measure the unspecific binding, 10 μM phentolamine (for [^3H]-prazosin) or 10 μM clonidine (for [^3H]-clonidine) were utilized. The incubation was completed by rapid filtration through Whatman GF/C filters using a vacuum manifold (Millipore). The filters were then washed twice with the assay buffer and placed in scintillation vials with a liquid scintillation cocktail. Radioactivity was measured in a WALLAC 1409 DSA liquid scintillation counter (Perkin Elmer, USA). All the assays were performed in duplicates, and the inhibitory constants (Ki) were calculated.

[1] = test system: adrenaline-induced arrhythmia model in rats; assay: Prophylactic antiarrhythmic activity in adrenaline-induced arrhythmia; format: in vivo, rat; conditions: for Blocks / Bradycardia / Extrasystoles / Mortality: number of animals with event
Experimental: (§1) The animals were anesthetized with thiopental (75 mg/kg ip). Depending on the model, either adrenaline, aconitine, or calcium chloride was used as an arrhythmogen. Adrenaline and aconitine were administered iv at a dose of 20 µg/kg, whereas calcium chloride was administered at a dose of 140 mg/kg to induce heart rhythm disturbances. The tested compounds were injected iv 15 min before the arrhythmogen. Aspel ASCARD apparatus (standard II lead, with the tape speed 50 mm/s and voltage calibration 1 mV = 1 cm) was used for ECG measurements. […] The ED50 was calculated using the method of Litchfield and Wilcoxon.

[2] = test system: calcium chloride-induced arrhythmia model in rats; assay: Prophylactic antiarrhythmic activity in calcium chloride-induced arrhythmia; format: in vivo, rat; conditions: 5 mg/kg iv 15 min before calcium chloride 140 mg/kg; number of animals with event
Experimental: as §1

normal ECG in rats = assay: Effect on a normal electrocardiogram in rats; format: in vivo, rat; conditions: for HR—heart rate / PQ interval / QRS complex / QTc (Bazzett's formula) / decrease of the heart rate: 5 mg/kg iv; for HR—heart rate / PQ interval / QRS complex / QTc (Bazzett's formula): mean ± SD; for PQ interval / QRS complex / QTc (Bazzett's formula): in ms (unit assumed)
Experimental: The procedure was performed to exclude the negative effects of the tested compounds on the normal ECG, according to the method described earlier. […] Firstly, animals were anesthetized with thiopental (75 mg/kg ip). […] The influence on PQ, QTc interval, QRS complex, and heart rate was evaluated. The Bazzett’s formula: QTc = QT/√RR was used to calculate QTc. All the studied compounds were administered at a dose of 5 mg/kg.

normotensive rats = assay: Influence on blood pressure in the normotensive rats; format: in vivo, rat; conditions: for DBP—diastolic blood pressure / SBP—systolic blood pressure: mean ± SD
Experimental: The experiment was performed according to the method described earlier. Normotensive Wistar rats were anesthetized with thiopental (75 mg/kg ip). The right carotid artery was cannulated with a polyethylene tube filled with heparin solution, using a Datamax apparatus (Columbus Instruments, Columbus, OH, USA). After 15 min of the stabilization period, the studied compounds were administered iv, and their effect on systolic and diastolic blood pressure was evaluated (Figure 4A).

[3] = test system: pressor response to methoxamine in rats; assay: Influence on blood vasopressor response to methoxamine in rats; format: in vivo, rat; conditions: 2.5 mg/kg iv, methoxamine 150 μg/kg before and 5 min after compound
Experimental: The experiment was performed to establish the effect of the studied derivatives on the pressor response to methoxamine (150 µg/kg, iv), according to the methods described previously. Normotensive Wistar rats were anesthetized with thiopental (75 mg/kg ip). The right carotid artery was cannulated with a polyethylene tube filled with heparin solution using a Datamax apparatus (Columbus Instruments, Columbus, OH, USA). After a 15-min stabilization period, the pressor response to methoxamine before (control) and 5 min after the administration of the tested compounds was measured (Figure 4B). The tested compounds were administered at the lowest hypotensive dose.

[4] = test system: adrenaline-induced arrhythmia model in rats; assay: Therapeutic antiarrhythmic activity in adrenaline-induced arrhythmia; conditions: 1 mg/kg iv immediately after adrenaline 20 µg/kg; number of animals with event
[5] = 0.1 mg/kg iv 15 min before adrenaline 20 μg/kg
[6] = 0.25 mg/kg iv 15 min before adrenaline 20 μg/kg
[7] = 0.5 mg/kg iv 15 min before adrenaline 20 μg/kg
[8] = 0 min (prior to administration)
[9] = 1.0 mg/kg iv, 0 min (before administration)
[10] = 2.5 mg/kg iv, 0 min (before administration)

Structure (SMILES): COc1ccccc1N1CCN(Cc2cccc(COc3ccccc3C(N)=O)c2)CC1.Cl [JJGW11, 2-[(3-{[4-(2-metoxyphenyl)piperazin-1-ylo]methyl}phenyl)metoxy}benzamide hydrochloride]
- Adrenergic Receptors—pKi α1 (α1-adrenergic receptors): 8.07 ± 0.04
- Blocks [1, 5]: 4/5
- Bradycardia [1, 5]: 2/5
- Extrasystoles [1, 5]: 4/5
- Mortality [1, 5]: 1/5
- Blocks [1, 6]: 6/6
- Bradycardia [1, 6]: 0/6
- Extrasystoles [1, 6]: 6/6
- Mortality [1, 6]: 0/6
- Blocks [1, 7]: 1/6
- Bradycardia [1, 7]: 2/6
- Extrasystoles [1, 7]: 3/6
- Mortality [1, 7]: 1/6
- ED50 ([1]; prophylactic, iv 15 min before adrenaline 20 μg/kg, confidence limits in brackets (Litchfield and Wilcoxon)): 0.19 (0.08–0.45) mg/kg
- Blocks [2]: 6/6
- Bradycardia [2]: 6/6
- Extrasystoles [2]: 5/6
- Fibrillations [2]: 6/6
- Mortality [2]: 6/6
- dose affecting the heart rate relative to the ED50 value in the adrenaline-induced arrhythmia model (normal ECG in rats; 5 mg/kg iv vs ED50): 26 fold
- HR—heart rate (normal ECG in rats; [8]): 281.3 ± 50.8
- PQ interval (normal ECG in rats; [8]): 45.8 ± 7.2
- QRS complex (normal ECG in rats; [8]): 38.5 ± 3.6
- QTc (Bazzett's formula) (normal ECG in rats; [8]): 188.2 ± 12.3
- decrease of the heart rate (normal ECG in rats; 10th min after the injection): 8%
- decrease of the heart rate (normal ECG in rats; 15th min after the injection): 10%
- HR—heart rate (normal ECG in rats; 5 min): 266.5 ± 58.2
- PQ interval (normal ECG in rats; 5 min): 47.1 ± 5.7
- QRS complex (normal ECG in rats; 5 min): 41.3 ± 3.0
- QTc (Bazzett's formula) (normal ECG in rats; 5 min): 197.3 ± 18.6
- HR—heart rate (normal ECG in rats; 10 min): 258.8 ± 55.0
- PQ interval (normal ECG in rats; 10 min): 47.4 ± 5.0
- QRS complex (normal ECG in rats; 10 min): 42.4 ± 4.3
- QTc (Bazzett's formula) (normal ECG in rats; 10 min): 193.6 ± 22.0
- HR—heart rate (normal ECG in rats; 15 min): 252.4 ± 50.3
- PQ interval (normal ECG in rats; 15 min): 47.6 ± 5.1
- QRS complex (normal ECG in rats; 15 min): 41.7 ± 5.4
- QTc (Bazzett's formula) (normal ECG in rats; 15 min): 184.1 ± 16.9
- DBP—diastolic blood pressure (normotensive rats; [9]): 86.8 ± 7.6 mmHg
- SBP—systolic blood pressure (normotensive rats; [9]): 118.2 ± 9.7 mmHg
- DBP—diastolic blood pressure (normotensive rats; 1.0 mg/kg iv, 5 min): 81.3 ± 14.4 mmHg
- SBP—systolic blood pressure (normotensive rats; 1.0 mg/kg iv, 5 min): 116.2 ± 8.5 mmHg
- DBP—diastolic blood pressure (normotensive rats; 1.0 mg/kg iv, 10 min): 82.0 ± 10.2 mmHg
- SBP—systolic blood pressure (normotensive rats; 1.0 mg/kg iv, 10 min): 113.8 ± 9.2 mmHg
- DBP—diastolic blood pressure (normotensive rats; 1.0 mg/kg iv, 20 min): 82.3 ± 8.8 mmHg
- SBP—systolic blood pressure (normotensive rats; 1.0 mg/kg iv, 20 min): 111.5 ± 10.4 mmHg
- DBP—diastolic blood pressure (normotensive rats; 1.0 mg/kg iv, 30 min): 83.0 ± 8.2 mmHg
- SBP—systolic blood pressure (normotensive rats; 1.0 mg/kg iv, 30 min): 111.0 ± 10.8 mmHg
- DBP—diastolic blood pressure (normotensive rats; 1.0 mg/kg iv, 40 min): 82.5 ± 8.4 mmHg
- SBP—systolic blood pressure (normotensive rats; 1.0 mg/kg iv, 40 min): 110.0 ± 11.5 mmHg
- DBP—diastolic blood pressure (normotensive rats; 1.0 mg/kg iv, 50 min): 81.7 ± 8.3 mmHg
- SBP—systolic blood pressure (normotensive rats; 1.0 mg/kg iv, 50 min): 110.3 ± 10.7 mmHg
- DBP—diastolic blood pressure (normotensive rats; 1.0 mg/kg iv, 60 min): 81.5 ± 8.4 mmHg
- SBP—systolic blood pressure (normotensive rats; 1.0 mg/kg iv, 60 min): 110.8 ± 10.6 mmHg
- DBP—diastolic blood pressure (normotensive rats; [10]): 88.7 ± 10.4 mmHg
- SBP—systolic blood pressure (normotensive rats; [10]): 116.7 ± 8.1 mmHg
- decrease of the diastolic blood pressure (normotensive rats; 2.5 mg/kg iv, 60th min after administration): 18%
- DBP—diastolic blood pressure (normotensive rats; 2.5 mg/kg iv, 5 min): 84.7 ± 10.0 mmHg
- SBP—systolic blood pressure (normotensive rats; 2.5 mg/kg iv, 5 min): 108.5 ± 8.7 ^b mmHg
- DBP—diastolic blood pressure (normotensive rats; 2.5 mg/kg iv, 10 min): 81.2 ± 8.6 mmHg
- SBP—systolic blood pressure (normotensive rats; 2.5 mg/kg iv, 10 min): 103.3 ± 9.5^c mmHg
- DBP—diastolic blood pressure (normotensive rats; 2.5 mg/kg iv, 20 min): 78.5 ± 10.1 mmHg
- SBP—systolic blood pressure (normotensive rats; 2.5 mg/kg iv, 20 min): 102.3 ± 10.0 ^c mmHg
- DBP—diastolic blood pressure (normotensive rats; 2.5 mg/kg iv, 30 min): 77.3 ± 9.9 mmHg
- SBP—systolic blood pressure (normotensive rats; 2.5 mg/kg iv, 30 min): 101.3 ± 9.2 ^b mmHg
- DBP—diastolic blood pressure (normotensive rats; 2.5 mg/kg iv, 40 min): 79.2 ± 10.5 mmHg
- SBP—systolic blood pressure (normotensive rats; 2.5 mg/kg iv, 40 min): 103.0 ± 10.3 ^a mmHg
- DBP—diastolic blood pressure (normotensive rats; 2.5 mg/kg iv, 50 min): 77.7 ± 12.9 mmHg
- SBP—systolic blood pressure (normotensive rats; 2.5 mg/kg iv, 50 min): 103.5 ± 12.9 ^b mmHg
- DBP—diastolic blood pressure (normotensive rats; 2.5 mg/kg iv, 60 min): 73.0 ± 16.2 ^a mmHg
- SBP—systolic blood pressure (normotensive rats; 2.5 mg/kg iv, 60 min): 100.2 ± 15.9 ^b mmHg
- decrease of the systolic blood pressure (normotensive rats; 2.5 mg/kg iv, between the 5th and 60th min after injection): 7–14%
- attenuation of the methoxamine pressor response [3]: 99%
- Blocks [4]: 2/5
- Bradycardia [4]: 1/5
- Mortality [4]: 0/5
